What was measured:
[1] = test system: Influenza B virus; experiment: Antiviral activity against Influenza B virus Lee/40 infected in human bronchial/tracheal epithelial cells after 5 days by fluorescence assay; type: functional, organism-based; conditions: B/Lee/1940, Epithelial cell, Trachea, 120 h
[2] = test system: Influenza A virus; experiment: Antiviral activity against Influenza A virus PC/1/73 infected in human bronchial/tracheal epithelial cells after 5 days by fluorescence assay; type: functional, organism-based; conditions: PC/1/73, Epithelial cell, Trachea, 120 h

## Nc1nc(F)nn2c([C@@H]3O[C@H](CO)[C@@H](O)[C@H]3F)cnc12
[1]
  EC50: > 100 µM
[2]
  EC50: > 100 µM

## CCOc1nc(N)nn2c([C@@H]3O[C@H](CO)[C@@H](O)[C@H]3F)cnc12
[1]
  EC50: > 200 µM
[2]
  EC50: > 200 µM

## Nc1nc(N)c2ncc([C@@H]3O[C@H](CO)[C@@H](O)[C@H]3F)n2n1
[1]
  EC50: 51 µM
[2]
  EC50: 21 µM

## Nc1ncnn2c([C@@H]3O[C@H](CO)[C@@H](O)[C@H]3F)cnc12
[1]
  EC50: 0.9 µM
[2]
  EC50: 0.9 µM

— ChEMBL document CHEMBL3098062, “Influenza RNA-Dependent RNA Polymerase (RdRp) Inhibitors: Potential New Therapy for Influenza Treatment” (ACS Med Chem Lett, 2013)
